From US6737383B1, “Herbicidal oxadiazolidines” (priority 1999, dated 2004)

How the values were obtained:
sugar beet = experiment: Test B pre/postemergence sugar beet; assay type: in vivo, Beta vulgaris
Procedure, shortened: (§1)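 Response is a visual 0-to-10 score relative to untreated plants, where 0 means no effect and 10 means complete control, taken twelve to sixteen days after application. Treatments went onto soil at planting and onto foliage of 1- to 4-leaf plants, using a surfactant-containing non-phytotoxic solvent.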

duck salad = experiment: Test B flood test duck salad; assay type: in vivo, Heteranthera limosa
Procedure, shortened: (§2)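 Flood test on plants grown to the 2-leaf stage; treated plants kept in greenhouse twelve to sixteen days, then visually rated against controls on a 0 (no effect) to 10 (complete control) scale.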

cocklebur = experiment: Test B pre/postemergence cocklebur; assay type: in vivo, Xanthium strumarium
Procedure, shortened: as §1

wheat = experiment: Test B pre/postemergence wheat; assay type: in vivo, Triticum aestivum
Procedure, shortened: as §1

velvetleaf = experiment: Test B pre/postemergence velvetleaf; assay type: in vivo, Abutilon theophrasti
Procedure, shortened: as §1

wild oat = experiment: Test B pre/postemergence wild oat; assay type: in vivo, Avena fatua
Procedure, shortened: as §1

soybean = experiment: Test B pre/postemergence soybean; assay type: in vivo, Glycine max
Procedure, shortened: as §1

pigweed = experiment: Test B pre/postemergence pigweed; assay type: in vivo, Amaranthus retroflexus
Procedure, shortened: as §1

morningglory = experiment: Test B pre/postemergence morningglory; assay type: in vivo, Ipomoea hederacea
Procedure, shortened: as §1

rape = experiment: Test B pre/postemergence rape; assay type: in vivo, Brassica napus
Procedure, shortened: as §1

giant foxtail = experiment: Test B pre/postemergence giant foxtail; assay type: in vivo, Setaria faberii
Procedure, shortened: as §1

crabgrass = experiment: Test B pre/postemergence crabgrass; assay type: in vivo, Digitaria sanguinalis
Procedure, shortened: as §1

purple nutsedge = experiment: Test B pre/postemergence purple nutsedge; assay type: in vivo, Cyperus rotundus
Procedure, shortened: as §1

corn = experiment: Test B pre/postemergence corn; assay type: in vivo, Zea mays
Procedure, shortened: as §1

bamyardgrass = experiment: Test B flood test barnyardgrass; assay type: in vivo, Echinochloa crus-galli
Procedure, shortened: as §2

rice = experiment: Test B flood test rice; assay type: in vivo, Oryza sativa
Procedure, shortened: as §2

[1] = Preemergence, Rate 62 g/ha, scale of 0 to 10 where 0 is no effect and 10 is complete control
[2] = Preemergence, Rate 250 g/ha, scale of 0 to 10 where 0 is no effect and 10 is complete control
[3] = Preemergence, Rate 500 g/ha, scale of 0 to 10 where 0 is no effect and 10 is complete control
[4] = Rate 62 g/ha, Postemergence, scale 0 to 10 (0 no effect, 10 complete control)
[5] = Rate 125 g/ha, Postemergence, scale of 0 to 10 where 0 is no effect and 10 is complete control
[6] = Rate 125 g/ha, Preemergence, scale of 0 to 10 where 0 is no effect and 10 is complete control
[7] = Rate 250 g/ha, Postemergence, scale of 0 to 10 where 0 is no effect and 10 is complete control
[8] = Rate 62 g/ha, headed Pre-emergence (flood test species), scale 0 to 10 (0 no effect, 10 complete control)
[9] = Rate 125 g/ha, Pre-emergence, flood test species, scale 0 to 10 where 0 is no effect and 10 is complete control
[10] = Rate 250 g/ha, Pre-emergence, flood-test species, scale 0 to 10, 0 is no effect, 10 is complete control
[11] = Rate 500 g/ha, Pre-emergence, flood test species, scale 0 to 10 (0 no effect, 10 complete control)
[12] = Rate 500 g/ha, Postemergence, scale 0 to 10, 0 no effect, 10 complete control

CC(C)N(C(=O)n1oc(=O)n(C2CCCC2)c1=O)c1ccc(F)cc1F [Compound 284]
Sugarbeets plant response rating (sugar beet; [1]): 2
Sugarbeets plant response rating (sugar beet; [2]): 6
Plant response rating, Sugarbeets (sugar beet; [3]): 6
Sugarbeets plant response rating (sugar beet; [4]): 1
Sugarbeets plant response rating (sugar beet; [5]): 3
Sugarbeets plant response rating (sugar beet; [6]): 5
Plant response rating, Sugarbeets (sugar beet; [7]): 5
Ducksalad plant response rating (duck salad; [8]): 0
Ducksalad plant response rating (duck salad; [9]): 0
Ducksalad plant response rating (duck salad; [10]): 0
Ducksalad plant response rating (duck salad; [11]): 0
Cocklebur plant response rating (cocklebur; [1]): 0
Plant response rating, Cocklebur (cocklebur; [3]): 0
Cocklebur plant response rating (cocklebur; [4]): 0
Cocklebur plant response rating (cocklebur; [5]): 2
Plant response rating, Cocklebur (cocklebur; [7]): 2
Cocklebur plant response rating (cocklebur; [12]): 2
Wheat plant response rating (wheat; [1]): 0
Wheat plant response rating (wheat; [2]): 0
Plant response rating, Wheat (wheat; [3]): 0
Wheat plant response rating (wheat; [4]): 0
Wheat plant response rating (wheat; [5]): 0
Wheat plant response rating (wheat; [6]): 0
Plant response rating, Wheat (wheat; [7]): 0
Velvetleaf plant response rating (velvetleaf; [1]): 0
Velvetleaf plant response rating (velvetleaf; [2]): 0
Plant response rating, Velvetleaf (velvetleaf; [3]): 7
Velvetleaf plant response rating (velvetleaf; [4]): 0
Velvetleaf plant response rating (velvetleaf; [5]): 0
Velvetleaf plant response rating (velvetleaf; [6]): 0
Plant response rating, Velvetleaf (velvetleaf; [7]): 2
Wild oats plant response rating (wild oat; [1]): 0
Wild oats plant response rating (wild oat; [2]): 3
Plant response rating, Wild oats (wild oat; [3]): 5
Wild oats plant response rating (wild oat; [4]): 0
Wild oats plant response rating (wild oat; [5]): 0
Plant response rating, Wild oats (wild oat; [7]): 0
Soybean plant response rating (soybean; [1]): 0
Soybean plant response rating (soybean; [2]): 0
Plant response rating, Soybean (soybean; [3]): 3
Soybean plant response rating (soybean; [4]): 4
Soybean plant response rating (soybean; [5]): 4
Soybean plant response rating (soybean; [6]): 0
Plant response rating, Soybean (soybean; [7]): 4
Redroot pigweed plant response rating (pigweed; [1]): 5
Redroot pigweed plant response rating (pigweed; [2]): 7
Plant response rating, Redroot pigweed (pigweed; [3]): 8
Redroot pigweed plant response rating (pigweed; [4]): 3
Redroot pigweed plant response rating (pigweed; [5]): 4
Redroot pigweed plant response rating (pigweed; [6]): 6
Plant response rating, Redroot pigweed (pigweed; [7]): 6
Morningglory plant response rating (morningglory; [1]): 0
Morningglory plant response rating (morningglory; [2]): 1
Plant response rating, Morningglory (morningglory; [3]): 2
Morningglory plant response rating (morningglory; [4]): 7
Morningglory plant response rating (morningglory; [5]): 7
Morningglory plant response rating (morningglory; [6]): 1
Plant response rating, Morningglory (morningglory; [7]): 7
Rape plant response rating (rape; [1]): 2
Rape plant response rating (rape; [2]): 7
Plant response rating, Rape (rape; [3]): 7
Rape plant response rating (rape; [4]): 1
Rape plant response rating (rape; [5]): 3
Rape plant response rating (rape; [6]): 2
Plant response rating, Rape (rape; [7]): 4
Giant foxtail plant response rating (giant foxtail; [1]): 9
Giant foxtail plant response rating (giant foxtail; [2]): 9
Plant response rating, Giant foxtail (giant foxtail; [3]): 10
Giant foxtail plant response rating (giant foxtail; [4]): 0
Giant foxtail plant response rating (giant foxtail; [5]): 2
Giant foxtail plant response rating (giant foxtail; [6]): 9
Plant response rating, Giant foxtail (giant foxtail; [7]): 3
Crabgrass plant response rating (crabgrass; [1]): 4
Crabgrass plant response rating (crabgrass; [2]): 8
Plant response rating, Crabgrass (crabgrass; [3]): 9
Crabgrass plant response rating (crabgrass; [4]): 0
Crabgrass plant response rating (crabgrass; [5]): 1
Crabgrass plant response rating (crabgrass; [6]): 4
Plant response rating, Crabgrass (crabgrass; [7]): 1
Nutsedge plant response rating (purple nutsedge; [1]): 0
Nutsedge plant response rating (purple nutsedge; [2]): 0
Plant response rating, Nutsedge (purple nutsedge; [3]): 0
Nutsedge plant response rating (purple nutsedge; [4]): 0
Nutsedge plant response rating (purple nutsedge; [5]): 0
Nutsedge plant response rating (purple nutsedge; [6]): 0
Plant response rating, Nutsedge (purple nutsedge; [7]): 0
Corn plant response rating (corn; [1]): 0
Corn plant response rating (corn; [2]): 0
Plant response rating, Corn (corn; [3]): 0
Corn plant response rating (corn; [4]): 0
Corn plant response rating (corn; [5]): 0
Corn plant response rating (corn; [6]): 0
Plant response rating, Corn (corn; [7]): 0
Corn plant response rating (corn; [12]): 0
Barnyardgrass plant response rating (bamyardgrass; [8]): 0
Barnyardgrass plant response rating (bamyardgrass; [9]): 1
Barnyardgrass plant response rating (bamyardgrass; [10]): 4
Barnyardgrass plant response rating (bamyardgrass; [11]): 9
Rice plant response rating (rice; [8]): 0
Rice plant response rating (rice; [9]): 0
Rice plant response rating (rice; [10]): 0
Rice plant response rating (rice; [11]): 0
